Assay results published in ChEMBL document CHEMBL1201862, “PubChem BioAssay data set” (2004).
Calls of active or inactive are those of the source.

Tests used:
[1] = target: Kallikrein-7 (Homo sapiens, UniProt P49862); test: Fluorescence Intensity-based biochemical primary high throughput dose response assay to identify activators of kallikrein-7 (K7) zymogen.
[2] = cells; assay type: functional
[3] = target: Mitogen-activated protein kinase 10 (Homo sapiens, UniProt P53779); test: Dose response biochemical screening assay for inhibitors of c-Jun N-Terminal Kinase 3 (JNK3). [Related pubchem assays: 746 ]
Mitogen-activated protein kinase 10, sequence (P53779 whole entry): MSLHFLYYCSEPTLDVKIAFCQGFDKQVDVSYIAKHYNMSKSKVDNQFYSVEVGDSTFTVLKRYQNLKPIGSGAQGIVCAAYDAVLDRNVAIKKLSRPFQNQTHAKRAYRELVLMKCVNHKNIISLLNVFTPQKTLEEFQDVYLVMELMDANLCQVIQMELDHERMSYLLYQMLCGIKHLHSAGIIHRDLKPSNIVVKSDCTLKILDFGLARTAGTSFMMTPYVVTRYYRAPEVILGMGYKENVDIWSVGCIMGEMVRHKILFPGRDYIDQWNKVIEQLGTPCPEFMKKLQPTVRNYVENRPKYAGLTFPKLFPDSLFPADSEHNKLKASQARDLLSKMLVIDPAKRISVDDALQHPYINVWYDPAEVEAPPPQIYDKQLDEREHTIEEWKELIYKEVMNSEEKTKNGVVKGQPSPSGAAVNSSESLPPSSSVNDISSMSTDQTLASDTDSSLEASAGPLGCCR

[4] = target: Glucose-6-phosphate 1-dehydrogenase (Homo sapiens, UniProt P11413); test: inhibition of Homo sapiens G6PD, dose series – biochemical, fluorescence, selectivity assay for P. falciparum G6PD inhibitor project, dose response (AID 504792); assay type: functional
[5] = target: T1, Zinc finger protein mex-5 (Caenorhabditis elegans, UniProt Q9XUB2); test: potency of MEX-5 RNA-binding blockers – biochemical, C. elegans, fluorescence polarization, dose response (AID 1960)
T1 sequence (Q9XUB2 whole entry): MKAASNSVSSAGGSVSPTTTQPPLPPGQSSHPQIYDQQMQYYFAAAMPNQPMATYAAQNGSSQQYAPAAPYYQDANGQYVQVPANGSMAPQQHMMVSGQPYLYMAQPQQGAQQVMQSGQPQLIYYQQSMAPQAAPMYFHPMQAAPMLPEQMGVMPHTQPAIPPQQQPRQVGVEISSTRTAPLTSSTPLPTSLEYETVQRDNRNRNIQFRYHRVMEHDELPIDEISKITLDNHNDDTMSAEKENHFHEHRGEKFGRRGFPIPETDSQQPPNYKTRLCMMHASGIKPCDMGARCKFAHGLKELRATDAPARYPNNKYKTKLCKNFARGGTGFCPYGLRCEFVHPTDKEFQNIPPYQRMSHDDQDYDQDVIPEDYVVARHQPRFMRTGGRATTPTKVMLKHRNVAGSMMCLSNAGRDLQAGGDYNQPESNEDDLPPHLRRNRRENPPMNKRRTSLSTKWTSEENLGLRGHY

[6] = target: T2, RNA-binding protein pos-1 (Caenorhabditis elegans, UniProt G5EF15); test: disruptors of C. elegans POS-1 RNA interaction – biochemical, fluorescence polarization, dose response (AID 1964);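 note: purified POS-1 fused to maltose binding protein made in E. coli; potency of compounds blocking POS-1 binding to fluorescent RNA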
T2 sequence (G5EF15 whole entry): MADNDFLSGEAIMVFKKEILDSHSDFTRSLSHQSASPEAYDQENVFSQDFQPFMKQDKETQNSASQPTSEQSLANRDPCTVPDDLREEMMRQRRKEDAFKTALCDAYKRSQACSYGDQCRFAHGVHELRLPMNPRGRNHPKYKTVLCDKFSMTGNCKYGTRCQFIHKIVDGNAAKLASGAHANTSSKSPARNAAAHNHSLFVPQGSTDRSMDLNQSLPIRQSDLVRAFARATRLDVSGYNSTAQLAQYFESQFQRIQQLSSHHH

[7] = target: 1-phosphatidylinositol 4,5-bisphosphate phosphodiesterase beta-3 (Homo sapiens, UniProt Q01970); test: Fluorescence-based biochemical high throughput dose response assay to identify inhibitors of phospholipase C isozymes (PLC-B3).
1-phosphatidylinositol 4,5-bisphosphate phosphodiesterase beta-3, sequence (Q01970 whole entry): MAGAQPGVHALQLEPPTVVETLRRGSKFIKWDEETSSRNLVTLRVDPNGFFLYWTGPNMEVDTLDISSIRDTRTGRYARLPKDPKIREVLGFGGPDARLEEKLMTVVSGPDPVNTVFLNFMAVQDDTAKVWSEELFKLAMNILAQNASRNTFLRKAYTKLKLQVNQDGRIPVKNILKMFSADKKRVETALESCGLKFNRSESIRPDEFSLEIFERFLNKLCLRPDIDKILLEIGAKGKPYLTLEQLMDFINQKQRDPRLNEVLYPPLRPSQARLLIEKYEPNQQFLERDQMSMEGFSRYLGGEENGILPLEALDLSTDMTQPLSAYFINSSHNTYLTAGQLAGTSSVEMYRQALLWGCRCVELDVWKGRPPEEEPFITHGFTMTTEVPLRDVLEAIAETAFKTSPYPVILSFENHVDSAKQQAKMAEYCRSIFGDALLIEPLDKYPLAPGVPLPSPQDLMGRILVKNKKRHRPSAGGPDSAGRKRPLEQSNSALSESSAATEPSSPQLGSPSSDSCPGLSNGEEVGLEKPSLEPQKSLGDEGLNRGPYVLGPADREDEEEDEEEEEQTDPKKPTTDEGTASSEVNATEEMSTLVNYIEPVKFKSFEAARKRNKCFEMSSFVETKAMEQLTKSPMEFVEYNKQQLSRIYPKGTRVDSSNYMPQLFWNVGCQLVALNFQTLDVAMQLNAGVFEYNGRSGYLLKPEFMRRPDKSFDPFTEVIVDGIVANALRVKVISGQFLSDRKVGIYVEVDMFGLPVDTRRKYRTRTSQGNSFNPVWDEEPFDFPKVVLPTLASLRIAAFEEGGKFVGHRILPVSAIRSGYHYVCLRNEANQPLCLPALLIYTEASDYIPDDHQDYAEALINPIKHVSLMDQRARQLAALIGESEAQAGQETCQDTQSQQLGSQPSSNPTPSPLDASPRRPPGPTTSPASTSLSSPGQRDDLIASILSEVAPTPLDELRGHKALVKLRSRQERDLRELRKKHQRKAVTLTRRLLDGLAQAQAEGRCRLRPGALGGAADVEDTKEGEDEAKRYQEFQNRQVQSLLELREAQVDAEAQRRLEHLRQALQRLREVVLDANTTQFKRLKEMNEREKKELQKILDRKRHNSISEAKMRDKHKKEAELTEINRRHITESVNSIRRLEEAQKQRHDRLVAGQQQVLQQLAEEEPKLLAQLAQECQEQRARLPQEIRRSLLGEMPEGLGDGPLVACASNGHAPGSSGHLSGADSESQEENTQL

[8] = target: 1-phosphatidylinositol 4,5-bisphosphate phosphodiesterase gamma-1 (Homo sapiens, UniProt P19174); test: Counterscreen for inhibitors of phospholipase C isozymes (PLC-B3): Fluorescence-based biochemical high throughput dose response assay to identify inhibitors of phospholipase C isozymes (PLC-gamma1).
[9] = target: T3, Carboxy-terminal domain RNA polymerase II polypeptide A small phosphatase 1 (Homo sapiens, UniProt Q9GZU7); test: CTDSP1 inhibitors, concentration-response, biochemical, absorbance readout, ultra-high-throughput screen actives (AID 540297); assay type: functional
T3 sequence (Q9GZU7 whole entry): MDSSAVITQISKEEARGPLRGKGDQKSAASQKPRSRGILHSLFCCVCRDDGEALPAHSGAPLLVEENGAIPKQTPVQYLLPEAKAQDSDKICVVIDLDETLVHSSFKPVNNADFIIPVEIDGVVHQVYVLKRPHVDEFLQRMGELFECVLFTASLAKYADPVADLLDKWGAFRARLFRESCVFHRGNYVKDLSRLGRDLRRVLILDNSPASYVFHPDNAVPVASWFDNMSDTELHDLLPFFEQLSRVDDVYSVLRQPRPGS

[10] = target: Paired box protein Pax-8 (Homo sapiens, UniProt Q06710); test: PAX8 transcriptional activity inhibition in RMG-I – RMG-I cells, luciferase, cherry-pick, dose response (AID 687027); assay type: functional, cell-based;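 note: luciferase reporter driven by Pax8 target thyroperoxidase promoter measured by SteadyGlo luminescence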
Paired box protein Pax-8, sequence (Q06710 whole entry): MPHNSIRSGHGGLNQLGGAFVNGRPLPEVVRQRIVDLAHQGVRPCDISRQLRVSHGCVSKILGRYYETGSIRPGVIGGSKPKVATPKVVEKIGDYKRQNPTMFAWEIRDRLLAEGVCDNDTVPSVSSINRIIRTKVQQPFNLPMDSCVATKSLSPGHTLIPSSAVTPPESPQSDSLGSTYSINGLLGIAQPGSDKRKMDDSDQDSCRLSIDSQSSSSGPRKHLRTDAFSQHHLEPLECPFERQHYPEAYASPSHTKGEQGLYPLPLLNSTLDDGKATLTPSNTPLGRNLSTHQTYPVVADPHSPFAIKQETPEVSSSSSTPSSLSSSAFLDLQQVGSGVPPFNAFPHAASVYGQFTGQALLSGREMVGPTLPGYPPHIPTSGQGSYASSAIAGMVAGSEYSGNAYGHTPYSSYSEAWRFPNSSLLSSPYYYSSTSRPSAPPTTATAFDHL

[11] = Shn3 3'UTR reporter signal decrease – cell-based, Clone20 osteoblasts, firefly luciferase, cherry-pick, set 2, Schnurri-3 inhibitor project, dose response (AID 720490); assay type: functional;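 note: actives lower the luminescence signal as inhibitors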
[12] = reduction of Shn3 3'UTR-driven luciferase in osteoblasts – cell-based, Clone20 osteoblasts, firefly luciferase, cherry-picked, dose response (AID 624132); assay type: functional;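 note: firefly luciferase luminescence from reporter carrying the Shn3 3'UTR in osteoblasts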
[13] = target: T4, Microphthalmia-associated transcription factor (Homo sapiens, UniProt O75030); test: reducers of TRPM1 reporter luminescence, concentration series – cell-based, SK-MEL-5, cherry-picked, set 3, MITF inhibitor project, dose response (AID 493073); assay type: functional;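 note: SK-MEL-5 melanoma cells with luciferase driven by the MITF target TRPM1 promoter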
T4 sequence (O75030 whole entry): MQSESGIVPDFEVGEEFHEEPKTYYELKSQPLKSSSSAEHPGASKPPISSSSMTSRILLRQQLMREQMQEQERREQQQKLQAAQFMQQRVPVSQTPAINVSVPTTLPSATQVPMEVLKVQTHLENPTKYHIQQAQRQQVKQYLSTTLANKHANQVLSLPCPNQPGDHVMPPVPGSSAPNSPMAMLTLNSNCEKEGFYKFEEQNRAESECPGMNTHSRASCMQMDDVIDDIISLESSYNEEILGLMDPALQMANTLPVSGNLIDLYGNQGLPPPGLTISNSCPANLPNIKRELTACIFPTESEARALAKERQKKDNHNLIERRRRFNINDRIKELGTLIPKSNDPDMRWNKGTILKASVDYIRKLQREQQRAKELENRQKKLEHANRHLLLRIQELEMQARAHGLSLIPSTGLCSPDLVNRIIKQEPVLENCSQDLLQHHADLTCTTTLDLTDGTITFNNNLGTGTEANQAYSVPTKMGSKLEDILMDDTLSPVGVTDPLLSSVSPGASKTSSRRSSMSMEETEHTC

[14] = target: Glutathione-S-transferase (Schistosoma japonicum, UniProt Q26513); test: GST-antibody interaction or FRET quenching – biochemical, TR-FRET, artefact control for Vif-APOBEC3G degradation inhibitor project, dose response (AID 1117362); assay type: functional
Glutathione-S-transferase, sequence (Q26513 whole entry): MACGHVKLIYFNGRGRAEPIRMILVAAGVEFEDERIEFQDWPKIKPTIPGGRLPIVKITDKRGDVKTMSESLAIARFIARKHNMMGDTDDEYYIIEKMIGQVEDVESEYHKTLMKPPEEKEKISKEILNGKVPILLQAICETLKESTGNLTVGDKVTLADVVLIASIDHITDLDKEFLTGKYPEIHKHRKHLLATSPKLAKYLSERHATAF

[15] = target: Nonstructural protein 1 (Influenza A virus, UniProt Q194T2); assay type: functional, Influenza A virus (A/California/07/2009(H1N1))
Nonstructural protein 1, sequence (Q194T2 whole entry): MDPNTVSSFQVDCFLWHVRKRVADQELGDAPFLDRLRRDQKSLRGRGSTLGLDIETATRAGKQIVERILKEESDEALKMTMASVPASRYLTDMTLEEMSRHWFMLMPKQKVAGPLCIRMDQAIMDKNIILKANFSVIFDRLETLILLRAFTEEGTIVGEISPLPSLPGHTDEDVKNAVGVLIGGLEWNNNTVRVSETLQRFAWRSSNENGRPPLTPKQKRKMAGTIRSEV

[16] = target: Ras and Rab interactor 1/Tyrosine-protein kinase ABL1 (Homo sapiens, UniProt P00519+Q13671); assay type: functional;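 note: biochemical TR-FRET dose-response test measuring inhibition of binding between Rin1 and Abl proteins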
Ras and Rab interactor 1/Tyrosine-protein kinase ABL1, sequence (P00519 whole entry): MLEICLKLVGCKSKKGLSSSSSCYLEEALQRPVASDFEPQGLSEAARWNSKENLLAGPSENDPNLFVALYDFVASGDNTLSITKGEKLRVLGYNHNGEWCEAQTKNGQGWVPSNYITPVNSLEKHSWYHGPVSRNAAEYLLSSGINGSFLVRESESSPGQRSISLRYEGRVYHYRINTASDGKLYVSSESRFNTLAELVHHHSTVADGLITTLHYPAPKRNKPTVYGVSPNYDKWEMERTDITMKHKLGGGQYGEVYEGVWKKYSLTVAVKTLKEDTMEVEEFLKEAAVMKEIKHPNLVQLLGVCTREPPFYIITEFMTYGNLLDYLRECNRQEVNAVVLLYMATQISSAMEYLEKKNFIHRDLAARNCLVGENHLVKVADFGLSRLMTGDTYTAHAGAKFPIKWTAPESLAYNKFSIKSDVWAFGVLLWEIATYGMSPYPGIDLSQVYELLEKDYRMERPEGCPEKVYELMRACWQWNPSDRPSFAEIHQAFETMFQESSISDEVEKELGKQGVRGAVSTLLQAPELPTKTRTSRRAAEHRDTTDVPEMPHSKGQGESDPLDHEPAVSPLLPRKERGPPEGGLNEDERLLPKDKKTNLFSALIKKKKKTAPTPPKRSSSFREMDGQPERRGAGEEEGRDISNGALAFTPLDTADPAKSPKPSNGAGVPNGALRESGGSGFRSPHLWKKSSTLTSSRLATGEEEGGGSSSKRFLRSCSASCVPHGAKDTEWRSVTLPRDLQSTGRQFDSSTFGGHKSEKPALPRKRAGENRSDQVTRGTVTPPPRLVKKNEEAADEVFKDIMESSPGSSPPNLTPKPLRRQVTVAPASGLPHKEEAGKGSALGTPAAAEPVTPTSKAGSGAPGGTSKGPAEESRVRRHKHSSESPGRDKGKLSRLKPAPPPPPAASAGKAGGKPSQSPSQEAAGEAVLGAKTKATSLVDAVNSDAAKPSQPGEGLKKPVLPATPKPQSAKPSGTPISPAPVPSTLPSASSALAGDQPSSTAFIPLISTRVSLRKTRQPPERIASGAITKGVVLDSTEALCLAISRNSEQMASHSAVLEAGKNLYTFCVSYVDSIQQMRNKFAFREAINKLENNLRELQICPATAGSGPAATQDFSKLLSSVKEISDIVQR
Ras and Rab interactor 1/Tyrosine-protein kinase ABL1, sequence (Q13671 whole entry): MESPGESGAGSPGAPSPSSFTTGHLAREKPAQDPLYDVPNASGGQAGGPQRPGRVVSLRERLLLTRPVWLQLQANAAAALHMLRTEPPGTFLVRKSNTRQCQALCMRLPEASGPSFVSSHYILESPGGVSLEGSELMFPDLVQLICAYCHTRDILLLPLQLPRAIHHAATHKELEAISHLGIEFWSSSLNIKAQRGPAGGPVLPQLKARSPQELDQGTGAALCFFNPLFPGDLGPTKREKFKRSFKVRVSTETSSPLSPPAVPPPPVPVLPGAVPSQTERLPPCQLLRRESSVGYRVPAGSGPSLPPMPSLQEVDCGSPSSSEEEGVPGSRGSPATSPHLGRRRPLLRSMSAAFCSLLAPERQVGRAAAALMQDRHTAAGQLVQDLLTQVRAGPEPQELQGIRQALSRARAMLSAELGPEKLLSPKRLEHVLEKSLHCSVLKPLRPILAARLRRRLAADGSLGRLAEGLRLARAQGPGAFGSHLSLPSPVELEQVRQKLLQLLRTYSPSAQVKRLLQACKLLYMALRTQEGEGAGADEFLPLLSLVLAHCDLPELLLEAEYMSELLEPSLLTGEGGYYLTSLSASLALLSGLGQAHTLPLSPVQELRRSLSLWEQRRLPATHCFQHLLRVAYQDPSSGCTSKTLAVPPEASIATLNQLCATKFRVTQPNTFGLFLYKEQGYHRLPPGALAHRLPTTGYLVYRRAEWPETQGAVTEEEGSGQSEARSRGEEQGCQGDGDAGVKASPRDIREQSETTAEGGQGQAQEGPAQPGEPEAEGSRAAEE

[17] = target: T5, Mannose-6-phosphate isomerase (Homo sapiens, UniProt P34949); test: MPI inhibition at elevated mannose 6-phosphate – biochemical, fluorescence intensity, high mannose 6-phosphate, primary screen (AID 1220)
T5 sequence (P34949 whole entry): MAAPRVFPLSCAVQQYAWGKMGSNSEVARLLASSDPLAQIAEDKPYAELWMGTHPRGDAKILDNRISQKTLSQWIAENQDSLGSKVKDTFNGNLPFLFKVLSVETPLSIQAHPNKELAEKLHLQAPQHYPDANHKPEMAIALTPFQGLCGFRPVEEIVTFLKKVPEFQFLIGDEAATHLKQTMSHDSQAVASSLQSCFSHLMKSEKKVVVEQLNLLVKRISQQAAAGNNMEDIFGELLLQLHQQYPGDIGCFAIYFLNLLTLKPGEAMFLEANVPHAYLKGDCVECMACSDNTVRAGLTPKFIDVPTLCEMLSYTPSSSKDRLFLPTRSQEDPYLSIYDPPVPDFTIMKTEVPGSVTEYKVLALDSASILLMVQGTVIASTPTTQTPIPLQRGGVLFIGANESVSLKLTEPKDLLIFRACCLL

[18] = test system: H9c2; test: cells; assay type: functional, cell-based; conditions: Rattus norvegicus, H9c2, Myocardium;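 note: confirmatory concentration-response retest of ultra-high-throughput screening hits for modulation of myocardial damage; cell death induced by hydrogen peroxide oxidative stress; compound pretreatment for 60 min then peroxide exposure for 2 h; potency is for protecting the cells against peroxide damage rather than for killing them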
[19] = off-target signal loss in HeLa-CEM21 co-culture – HeLa F-luc CTL cells, cherry-picked, counter-screen for HIV-1 Env fusion inhibitor project, dose response (AID 652040); assay type: functional, cell-based;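 note: potency for signal decrease marking cytotoxic or nonspecific inhibition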
[20] = HIV-1 AD8 envelope cell-cell fusion blockers – cherry-pick, dose response (AID 652062); assay type: functional, cell-based;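 note: luciferase signal from cell-cell fusion driven by HIV-1 clade B AD8 Env; potency is for inhibitors of fusion seen as a drop in luminescence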
[21] = blockers of HIV-1 envelope-mediated cell-cell fusion – cherry-pick, dose response (AID 652057); assay type: functional, cell-based
[22] = non-specific 3'UTR reporter inhibition in Clone20-Shn3RL – cell-based, Renilla luciferase, cherry-picked, counter-screen for Shn3 inhibitor project, dose response (AID 624133); assay type: functional
[23] = blockers of HIV-1 ZM109 envelope-driven cell-cell fusion – HeLa effector, CEM target cells, luciferase, cherry-pick, dose response (AID 652058); assay type: functional, cell-based;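 note: luciferase signal from HIV-1 Env mediated cell-cell fusion of effector and target cells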
[24] = loss of viability in HepG2 cells – cell-based, CellTiter-Glo, cherry-picked, cytotoxicity control for Shn3 inhibitor project, dose response (AID 624134); assay type: functional
[25] = rise of 2N DNA cells, HeLa – IC50, dose response (AID 1117349); assay type: functional, cell-based
[26] = cytotoxicity toward Colo320 cells – cell-based, CellTiter-Glo luminescence, IC50, dose response (AID 1117334); assay type: functional; conditions: COLO 320
[27] = HCT116 cell viability decrease, GSK3B pretreatment – CellTiter-Glo, IC50, dose response (AID 1117339); assay type: functional; conditions: HCT-116
[28] = SNU-C1 cell viability reduction, dose response, CellTiter-Glo luminescence (AID 1117323); assay type: functional, cell-based
[29] = RKO cell viability reduction, dose response, CellTiter-Glo luminescence (AID 1117322); assay type: functional
[30] = rise of 4N DNA cells, HeLa – IC50, dose response (AID 1117351); assay type: functional, cell-based
[31] = Reduced DLD-1 viability, concentration-response, CellTiter-Glo luminescence (AID 1117352); assay type: functional
[32] = CellTiter-Glo luminescence survival assay, SW480 colon tumor line, concentration-response curve, half-maximal inhibitory concentration (AID 1117338); assay type: functional
[33] = cytotoxicity toward HT-29 cells – cell-based, CellTiter-Glo luminescence, IC50, dose response (AID 1117330); assay type: functional
[34] = cytotoxicity toward HCT116 cells – cell-based, CellTiter-Glo luminescence, IC50, dose response (AID 1117332); assay type: functional; conditions: HCT-116

Kallikrein-7, sequence (P49862 whole entry): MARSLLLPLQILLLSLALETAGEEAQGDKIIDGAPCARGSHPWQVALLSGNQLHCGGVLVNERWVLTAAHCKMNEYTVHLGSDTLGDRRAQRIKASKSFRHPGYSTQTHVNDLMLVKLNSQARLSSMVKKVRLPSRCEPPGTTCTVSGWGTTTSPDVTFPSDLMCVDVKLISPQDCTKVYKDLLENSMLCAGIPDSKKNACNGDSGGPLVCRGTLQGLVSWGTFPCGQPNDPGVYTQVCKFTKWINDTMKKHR

## CCOC(=O)COc1ccc2c(c1)C(=O)CC1(CCCCC1)O2
[1]
  EC50: > 69.5 µM (inactive)
[2]
  IC50: 1.18 µM (active)

## CCOc1cccc(NC(=O)C2CCCN(S(=O)(=O)c3ccc(-n4cnnn4)cc3)C2)c1 (centres undefined)
[3]
  IC50: > 93.1 µM (not active)

## O=C(O)c1ccc(-n2c(-c3cc(-c4ccco4)[nH]n3)n[nH]c2=S)cc1
[4]
  IC50: > 80 µM (inactive)
[5]
  EC50: 4.74 µM (inconclusive)
[6]
  EC50: 4.19 µM (inconclusive)
[7]
  IC50: > 122 µM (inactive)
[8]
  IC50: 102 µM (inactive)
[9]
  IC50: 1.59 µM (active)

## Cc1ccc(-c2cn3cc(C)ccc3n2)cc1
[10]
  AC50: 3.46 µM (active)
[11]
  AC50: 7.73 µM (active)
[12]
  AC50: 1.32 µM (active)
[13]
  AC50: 2.03 µM (active)

## CC[n+]1ccc(C)c2cc([S+]([O-])C(F)(F)F)ccc21 (centres undefined)
[14]
  IC50: 55.4 µM (active)

## Cc1c(F)cccc1NC(=O)CCCCCC1NC(=O)NC1C (centres undefined)
[15]
  IC50: 1.18 µM (active)
[16]
  IC50: 0.0143 µM (active)
[14]
  IC50: 29.8 µM (active)

## CCN1CCN(c2cc(C)c3cc(NC(=O)c4ccc(C)c(C)c4)ccc3n2)CC1
[1]
  EC50: 17.2 µM (inactive)

## Fc1ccc(NC(S)=Nc2ccc3nccnc3c2)cc1
[17]
  IC50: > 50 µM (not active)
[18]
  IC50: 22.5 µM (active)

## COC(=O)c1cccc(NC(=O)CN2CCC(NC(=O)c3cc(OC)c(OC)c(OC)c3)CC2)c1
[3]
  IC50: 1.7 µM (active)

## CCOc1ccc(N(C)S(=O)(=O)c2cc(-c3cc(C)no3)ccc2C(C)C)cc1
[19]
  AC50: 1.27 µM (active)
[11]
  AC50: 5.22 µM (active)
[20]
  AC50: 7.87 µM (active)
[12]
  AC50: 4.13 µM (active)
[21]
  AC50: 1.32 µM (active)
[22]
  AC50: 16.7 µM (active)
[23]
  AC50: 3 µM (active)
[24]
  AC50: 58.4 µM (active)

## Cc1ccc2nc(N)[nH]c(=O)c2c1Sc1ccncc1
[25]
  IC50: > 10 µM (inactive)
[26]
  IC50: > 20 µM (inactive)
[27]
  IC50: 0.83 µM (active)
[28]
  IC50: > 20 µM (inactive)
[29]
  IC50: 0.343 µM (active)
[30]
  IC50: > 10 µM (inactive)
[31]
  IC50: > 20 µM (inactive)
[32]
  IC50: 2.24 µM (active)
[33]
  IC50: 4.75 µM (active)
[34]
  IC50: 3.5 µM (active)

## COc1c(C)c2c(c(O)c1C/C=C(\C)CCC(=O)OCCN1CCOCC1)C(=O)OC2 [MYCOPHENOLATE MOFETIL]
[25]
  IC50: > 10 µM (inactive)
[26]
  IC50: 0.001 µM (active)
[27]
  IC50: 0.0498 µM (active)
[28]
  IC50: > 20 µM (inactive)
[29]
  IC50: 0.165 µM (active)
[30]
  IC50: > 10 µM (inactive)
[31]
  IC50: > 20 µM (inactive)
[32]
  IC50: 2.6 µM (active)
[33]
  IC50: > 20 µM (inactive)
[34]
  IC50: 0.0672 µM (active)
